Laboratory results: PubChem BioAssay (NCI)
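Step 1: Grow cells in 96-well plates. Step 2: Expose to compound for 48 hours at 5 concentrations. Step 3: Interpolate endpoints linearly; if unreached, use highest concentration. At the TGI there is no net growth.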

Columns and labels:
Assay in all cases: NCI anticancer screen, dose series, 48 h
PC-3 prostate = tested on: PC-3 prostate
HCC-2998 colon = tested on: HCC-2998 colon
T-47D breast = tested on: T-47D breast
COLO 205 colon = tested on: COLO 205 colon
MDA-N = tested on: MDA-N
HOP-62 NSCLC = tested on: HOP-62 NSCLC
KM12 colon = tested on: KM12 colon
RXF 393 renal = tested on: RXF 393 renal
MDA-MB-435 = tested on: MDA-MB-435
DU-145 prostate = tested on: DU-145 prostate
UACC-257 melanoma = tested on: UACC-257 melanoma
UO-31 renal = tested on: UO-31 renal
NCI-H226 lung = tested on: NCI-H226 lung
SK-MEL-2 melanoma = tested on: SK-MEL-2 melanoma
SR leukemia = tested on: SR leukemia
SNB-19 CNS = tested on: SNB-19 CNS
OVCAR-8 ovarian = tested on: OVCAR-8 ovarian
HOP-92 NSCLC = tested on: HOP-92 NSCLC
U251 CNS = tested on: U251 CNS
MDA-MB-231 breast = tested on: MDA-MB-231 breast

Structure (SMILES) | TGI (PC-3 prostate) [µM] | TGI (HCC-2998 colon) [µM] | TGI (T-47D breast) [µM] | TGI (COLO 205 colon) [µM] | TGI (MDA-N) [µM] | TGI (HOP-62 NSCLC) [µM] | TGI (KM12 colon) [µM] | TGI (RXF 393 renal) [µM] | TGI (MDA-MB-435) [µM] | TGI (DU-145 prostate) [µM] | TGI (UACC-257 melanoma) [µM] | TGI (UO-31 renal) [µM] | TGI (NCI-H226 lung) [µM] | TGI (SK-MEL-2 melanoma) [µM] | TGI (SR leukemia) [µM] | TGI (SNB-19 CNS) [µM] | TGI (OVCAR-8 ovarian) [µM] | TGI (HOP-92 NSCLC) [µM] | TGI (U251 CNS) [µM] | TGI (MDA-MB-231 breast) [µM]
COc1ccc(NC(=O)C(=O)Cc2nc3ccc(C(=O)c4ccccc4)cc3[nH]c2=O)c([N+](=O)[O-])c1 | > 100 | > 100 | 68.9 | 40 | > 100 | > 100 | 64 | > 100 | 66.1 | > 100 | > 100 | 67.6 | 39.8 | > 100 | 51.1 | > 100 | 49 | 74.4 | > 100 | > 100
c1ccc(COC2C3COC(O3)C(OCc3ccccc3)C2OCc2ccccc2)cc1 (stereo not drawn) | > 100 | 52.1 | > 100 | > 100 | > 100 | > 100 | > 100 | > 100 | > 100 | > 100 | > 100 | > 100 | > 100 | > 100 | 25.4 | > 100 | > 100 | > 100 | > 100 | > 100
COc1ccc(NC/C=C/C(=C/COC(C)=O)OC(C)=O)cc1 | 5.98 | 6.84 | 5.45 | 3.4 | 4.07 | 5.18 | 1.99 | 3.04 | 3.14 | 10.2 | 5.04 | 25 | 51.7 | 5.58 | 2.71 | 9.29 | 16.1 | 3.87 | 4.53 | 3.37
C[C@H](NC(=O)CNC(=O)CCCCCC(=O)NCC(=O)N[C@@H](C)C(=O)OCc1ccccc1)C(=O)OCc1ccccc1 | > 100 | > 100 | > 100 | > 100 | > 100 | > 100 | > 100 | > 100 | > 100 | > 100 | > 100 | – | > 100 | > 100 | > 100 | > 100 | > 100 | > 100 | > 100 | > 100
c1ccc2c(-c3csc(-c4c[nH]c5ccccc45)n3)c[nH]c2c1 | > 100 | > 100 | > 100 | – | > 100 | > 100 | > 100 | > 100 | > 100 | > 100 | > 100 | > 100 | > 100 | > 100 | > 74.6 | > 100 | > 100 | > 100 | > 100 | > 100
c1n[nH]cc1C12C3C4C5C3C1C5C42 (stereo not drawn) | > 100 | > 100 | > 100 | > 100 | > 100 | > 100 | > 100 | > 100 | > 100 | > 100 | > 100 | > 100 | > 100 | > 100 | > 100 | > 100 | > 100 | > 100 | > 100 | > 100
O=C(NCCCCCCCN1CCCCCCC1)C(C1CCCCC1)C1CCCCC1 | 21.1 | 7.59 | 23 | 8.64 | 21.8 | 14.4 | 27.5 | 17 | 22.2 | 27.4 | 4.79 | 21.3 | 23.5 | 22.2 | 6.84 | 27.9 | 26 | 23.7 | 20.8 | 20.8
c1cncc(CSc2ncnc3nc[nH]c23)c1 | > 100 | > 100 | > 100 | > 100 | > 100 | > 100 | > 100 | > 100 | > 100 | > 100 | > 100 | > 100 | > 100 | > 100 | > 100 | > 100 | > 100 | > 100 | > 100 | > 100
CCOC(=O)/C=C\C(C#N)(C#N)N=Cc1ccsc1 | 22.7 | 32.3 | 4.49 | 3.4 | 24.5 | 36.9 | 36.5 | 5.46 | 6.63 | 30.7 | 20.9 | 5.71 | 34.2 | 33.1 | 18.1 | 55.2 | 14.6 | 4.52 | 33.1 | 30.9
CCCC(=O)OCOC(=O)N(C)N=Nc1ccc(C(=O)OCC)cc1 | 97.1 | 45.9 | > 100 | 51.5 | > 100 | > 100 | > 100 | 33.5 | > 100 | 64.1 | > 100 | > 100 | > 100 | 36.3 | > 100 | > 100 | 84.7 | 63.7 | 84.1 | > 100
O=c1[nH]c2nc[nH]c2c(=O)n1C1CCCCC1 | > 100 | > 100 | > 100 | > 100 | > 100 | > 100 | > 100 | > 100 | > 100 | > 100 | > 100 | > 100 | > 100 | > 100 | > 100 | > 100 | > 100 | > 100 | > 100 | > 100
CCCCN(C)C(=O)C1=C(C)NC(C)=C(C(=O)N(C)CCCC)C1 | > 100 | > 100 | > 100 | > 100 | > 100 | > 100 | > 100 | > 100 | > 100 | > 100 | > 100 | > 100 | > 100 | > 100 | > 100 | > 100 | > 100 | > 100 | > 100 | > 100
COc1cccc(C(NC2=NCCC=N2)c2cc3c(cc2O)OCO3)c1O (stereo not drawn) | > 100 | 46.9 | 63.5 | > 100 | > 100 | 55.5 | > 100 | 63 | 88.8 | > 100 | > 100 | > 100 | > 100 | 72.5 | 34.9 | > 100 | 25.4 | 77.5 | 31.9 | 59.9
C[C@H]1C[C@H]2[C@@H]3CCC4=CC(=O)C=C[C@]4(C)C3=CC[C@]2(C)[C@@]1(O)C(=O)CO | > 100 | > 100 | > 100 | > 100 | > 100 | > 100 | > 100 | > 100 | > 100 | > 100 | > 100 | > 100 | > 100 | > 100 | > 100 | > 100 | > 100 | > 100 | > 100 | > 100
O/N=C1/CCCc2nonc21 | > 100 | > 100 | > 100 | > 100 | > 100 | > 100 | > 100 | > 100 | > 100 | > 100 | > 100 | > 100 | > 100 | > 100 | > 100 | > 100 | > 100 | > 100 | > 100 | > 100
O=c1[nH]c(=O)n(C2C(CO)OC(CO)C2O)cc1F (stereo not drawn) | > 100 | > 100 | > 100 | > 100 | > 100 | > 100 | > 100 | > 100 | > 100 | > 100 | > 100 | > 100 | > 100 | > 100 | > 100 | > 100 | > 100 | > 100 | > 100 | > 100
CC(C)CCC[C@@H](C)[C@H]1CC[C@H]2C3=C[C@H](OS(=O)(=O)O)[C@@]4(O)C[C@@H](O)CC[C@]4(C)[C@@]3(O)CC[C@]12C | > 100 | > 100 | > 100 | > 100 | > 100 | > 100 | > 100 | > 100 | > 100 | > 100 | > 100 | > 100 | > 100 | > 100 | > 100 | > 100 | > 100 | > 100 | > 100 | > 100
O=C1C=C(C2=C(C3=CC(=O)c4ccccc4C3=O)C(=O)c3ccccc3C2=O)C(=O)c2ccccc21 | 47.6 | 43.1 | 29.5 | 17.3 | 5.65 | 33.5 | 30.8 | 14.5 | 6.28 | 16.5 | 25.4 | 11.1 | 29.9 | 42.4 | > 100 | 37.7 | 19.1 | 18 | 18.1 | 13.8
O=C(O)CC12CC3CC(CC(O)(C3)C1)C2 | > 100 | > 100 | > 100 | > 100 | > 100 | > 100 | > 100 | > 100 | > 100 | > 100 | > 100 | > 100 | > 100 | > 100 | > 100 | > 100 | > 100 | > 100 | > 100 | > 100
CC(=O)N(CC(=O)C(=O)NNc1ccoc1)c1ccc(Cl)cc1 | > 100 | > 100 | > 100 | > 100 | > 100 | > 100 | > 100 | > 100 | > 100 | > 100 | > 100 | > 100 | > 100 | > 100 | > 100 | > 100 | > 100 | > 100 | > 100 | > 100
C#CCNC(=O)NC(CCCCNC(=O)OCc1ccccc1)C(=O)OCc1ccccc1 (stereo not drawn) | > 100 | > 74.1 | > 32.4 | 46.9 | > 68.3 | > 100 | > 100 | 43.1 | 57.1 | > 100 | 43.9 | 44.6 | > 100 | > 75.8 | > 100 | > 100 | > 100 | 54 | > 100 | > 58.7
CCOC(=O)/C=C/C1(CCOC(C)=O)CCCCC1 | > 10 | > 10 | > 10 | > 10 | > 10 | > 10 | > 10 | > 10 | > 10 | > 10 | > 10 | > 10 | > 10 | > 10 | > 10 | > 10 | > 10 | > 10 | > 10 | > 10
CC(=O)O[C@@H]1[C@H]2[C@@H](OC(=O)c3ccccc3)[C@@H](C)C[C@]2(O)[C@H](OC(C)=O)[C@@]2(C)[C@@H]3C[C@@](C)(OC(C)=O)C[C@@H](OC(C)=O)[C@@]3(OC(C)=O)C[C@@]12C | > 10 | > 10 | > 10 | > 10 | > 10 | > 10 | > 10 | > 10 | > 10 | > 10 | > 10 | > 10 | > 10 | > 10 | > 10 | > 10 | > 10 | > 10 | > 10 | > 10
